Data: patent publication US20050152858A1, “Solubilizing agents for active or functional organic compounds” (ISP INVESTMENTS INC., priority 2003, published 2005)
Like-named read-outs stand apart in the source and are kept apart here.

Assays:
[1] = Enhancement of UVA absorption (UV spectrum of sunscreen in solvent); type: physicochemical; settings: for λmax of E-517 in the solvent: 10 mg sunscreen E-517 (avobenzone) in 1 L of solvent; for λmax of E-567 in the solvent: 10 mg sunscreen E-567 (benzophenone-3) in 1 L of solvent
Experimental: A 10-mg portion of sunscreen was dissolved in 1 L of solvent, and the UV spectrum of the solution was measured using a Cary 1 E UV-Visible spectrophotometer.

[2] = Solubility of solid organic sunscreens in various solvents
Experimental: Predetermined solutions (w/w) were prepared at 40-50° C. using a given solvent-sunscreen combination. The solutions were allowed to stand for 1 week at 25° C. in a constant temperature chamber. A small seed crystal was initially added at 25° C. to hasten equilibration. Solubility was measured by GLC using standard solutions to calibrate the instrument.

λmax of E-517 in the solvent [1] [nm] | λmax of E-567 in the solvent [1] [nm] | SMILES | also measured
362 | 329 | O=C(OCCc1ccccc1)c1ccccc1 [2-phenylethyl benzoate, 2-Phenylethyl Benzoate] | –
358 | 325 | CCO [Ethanol, reference compound] | –
– | – | O=C(Cc1cccc(C(F)(F)F)c1)OCc1ccccc1 [benzyl α,α,α-trifluoro-m-tolylacetate, Benzyl α,α,α-Trifluoro-m-tolylacetate] | Solubility of Avobenzone in the solvent ([2]; sunscreen Avobenzone, 1 week at 25° C., seeded, GLC): 15 % w/w; Solubility of MBC in the solvent ([2]; sunscreen MBC (4-methylbenzylidene camphor), 1 week at 25° C., seeded, GLC): 34 % w/w; Solubility of Oxybenzone in the solvent ([2]; sunscreen Oxybenzone, 1 week at 25° C., seeded, GLC): 28 % w/w
– | – | CC(COC(=O)c1ccccc1)OC(=O)c1ccccc1 (centres unmarked) [propylene glycol dibenzoate, Propylene Glycol Dibenzoate] | Solubility of MBC in the solvent [2]: 33 % w/w
